Patent US20130302497A1, “Taste Enhancement” (Givaudan S.A., priority 2010, published 2013)

Test: Expert panel taste evaluation (umami/salty) in chicken broth with or without added choline chloride
Format: in vivo
Details: for Taste description, material alone: without choline chloride; for Taste description, with choline added: choline chloride 7 ppm final concentration
Procedure: The materials described below were evaluated at the concentration specified by an expert panel in a chicken broth (commercial Swanson chicken broth, with no MSG added, 50% reduced sodium 430 mg/serving) with or without added choline chloride (7 ppm final concentration).

[1] = 10 ppm in Swanson chicken broth, no MSG added, 50% reduced sodium

## Cc1cc(O)c(C(=O)CCc2ccccn2)cc1C [1-(2-hydroxy-4,5-dimethylphenyl)-3-(pyridin-2-yl)propan-1-one]
[1]
  Taste description, material alone: Weak umami
10 ppm in chicken broth
  Taste description, with choline added: Better, stronger umami, saltier

## CCCCCOc1ccc(C(=O)CCc2ccccn2)c(O)c1 [1-(2-hydroxy-4-(pentyloxy)phenyl)-3-(pyridine-2-yl)propan-1-one]
1 ppm in chicken broth
  Taste description, with choline added: enhanced the saltiness and umami character with a well rounded taste profile
  Taste description, material alone: salty and umami

## CC(C)COc1ccc(C(=O)CCc2ccccn2)c(O)c1 [1-(2-hydroxy-4-isobutoxyphenyl)-3-(pyridine-2-yl)propan-1-one]
1 ppm in chicken broth
  Taste description, with choline added: enhanced the saltiness and umami character with a well rounded taste profile
  Taste description, material alone: Salty and umami

## COc1ccc(C(=O)CCc2ccccn2)c(O)c1 [1-(2-hydroxy-4-methoxyphenyl)-3-(pyridin-2-yl)propan-1-one]
[1]
  Taste description, material alone: Umami, lingering, body
10 ppm in chicken broth
  Taste description, with choline added: enhancement of umami, enhancement of saltiness

## CC(C)=CCC/C(C)=C/CNC(=O)C1CC1 [(E)-N-(3,7-dimethylocta-2,6-dienyl)cyclopropanecarboxamide]
2 ppm in chicken broth
  Taste description, with choline added: Very full, more salty, umami
  Taste description, material alone: Umami, salty, not good aftertaste

## COc1cc(C)ccc1CNC(=O)C(=O)NCCc1ccccn1 [N-(2-methoxy-4-methylbenzyl)-N′-(2-(pyridin-2-yl)ethyl)oxalamide]
0.5 ppm in chicken broth
  Taste description, with choline added: more lingering umami, kokumi
  Taste description, material alone: lingering umami
